Reference: BindingDB's records for patent WO2021069705 (MONTE ROSA THERAPEUTICS AG, 2021)

Molecular target: Protein cereblon (Homo sapiens, UniProt Q96SW2)
Experiment: Protocol for Fluorescent Polarization assay
Method: Compound activity was monitored in a fluorescence polarization (FP) homogeneous assay using 1 -[5-({2-[2-(2-{[2-(2,6-dioxopiperidin-3-yl)-1 ,3-dioxo-2,3-dihydro-1 H-isoindol-4-yl]oxy}acetamido)ethoxy]ethyl}carbamoyl)pentyl]-3,3-dimethyl-2-[(1 E,3E)-5-[(2E)-1 ,3,3-trimethyl-5-sulfo-2,3-dihydro-1 H-indol-2-ylidene]penta-1 ,3-dien-1 -yl]-3H-indol-1 -ium-5-sulfonate as a fluorescent probe. Unless otherwise stated, all reagents were purchased from Sigma Aldrich. Enzymatic reactions were conducted in Perkin-Elmer Black 384 well ProxiPlate Plus (catalogue no. 6008269) in 10 μL total volume. Full length wild-type cereblon CRBN (80.0 nM, 10 μL) was incubated in assay buffer containing 20 mM HEPES (pH 8.0), 1 50 NaCl, 0.5 mM TCEP and 0.05% Tween 20 in the presence or absence of compound (300 nL). Inhibitors were stored as 10 mM DMSO stocks in an inert environment (low humidity, dark, low oxygen, room temperature) using the Storage Pod System. Compounds and DMSO were dispensed using the Echo E5XX (Labcyte Inc. USA) to give concentrations from 300 to 0.937 or 3000 to 9.3 nM in a 1 2 data point curve. […] FP was measured after a period of 1 2 hours using a Pherastar plate reader (BMG Labtech, Germany) exciting at 590 nm and measuring the amount of parallel and perpendicular light at 675 nm. […]

Protein cereblon, sequence (Q96SW2 whole entry): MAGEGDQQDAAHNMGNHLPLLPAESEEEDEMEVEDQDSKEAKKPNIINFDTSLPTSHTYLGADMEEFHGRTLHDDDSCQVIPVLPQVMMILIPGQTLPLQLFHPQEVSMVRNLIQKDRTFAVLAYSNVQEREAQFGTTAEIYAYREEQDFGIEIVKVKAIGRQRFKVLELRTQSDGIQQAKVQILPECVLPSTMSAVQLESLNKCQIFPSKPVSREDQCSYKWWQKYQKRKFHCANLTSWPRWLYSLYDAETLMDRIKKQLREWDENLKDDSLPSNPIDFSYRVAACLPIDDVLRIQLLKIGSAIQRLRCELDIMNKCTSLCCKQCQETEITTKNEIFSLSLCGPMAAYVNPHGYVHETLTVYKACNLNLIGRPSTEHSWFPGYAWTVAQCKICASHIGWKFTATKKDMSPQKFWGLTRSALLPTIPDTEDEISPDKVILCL

IC50: 617 nM
Structure (SMILES): O=C1CCC(N2Cc3ccc(CNC(=O)Nc4ccc(Br)cc4)cc3C2=O)C(=O)N1 (stereo unspecified) [WO2021069705, Compound 9]
